A short description of data set [1]: Induction of gamma-globin gene expression in human erythrocytes at 0.83 uM after 3 days by RT-PCR analysis relative to control. In kind it is functional, Erythrocyte. The note with it: time 3 day.
Data set [2] is described as follows: Cytotoxicity against human erythrocytes assessed as cell viability at 0.83 uM after 3 days alamar blue assay relative to control. In kind it is cell-based, Erythrocyte. The note with it: time 3 day, read-out: Activity. A general note: Alamar Blue is a resazurin reagent that responds to reducing activity.
Data set [3] in a line: Induction of gamma-globin gene expression in human erythrocytes at 10 uM after 3 days by RT-PCR analysis relative to control. It counts as functional, Erythrocyte. As to conditions: time 3 day.
A short description of data set [4]: Cytotoxicity against human erythrocytes assessed as cell viability at 10 uM after 3 days alamar blue assay relative to control. It counts as cell-based, Erythrocyte. The note with it: time 3 day, read-out: Activity.
The nature of data set [5]: Induction of gamma-globin gene expression in human erythrocytes at 0.1 uM after 3 days by RT-PCR analysis relative to control. As to conditions: time 3 day. In kind it is functional, Erythrocyte.
A short description of data set [6]: Cytotoxicity against human erythrocytes assessed as cell viability at 0.1 uM after 3 days alamar blue assay relative to control. It counts as cell-based, Erythrocyte. The note with it: time 3 day, read-out: Activity.
A short description of data set [7]: Half life in Sprague-Dawley rat at 2 mg/kg, iv measured upto 24 hrs by LC-MS/MS analysis. In kind it is ADME, organism-based. As to conditions: in vivo.
Data set [8] in a line: Clearance in Sprague-Dawley rat at 2 mg/kg, iv measured upto 24 hrs by LC-MS/MS analysis. The note with it: in vivo. It counts as ADME, organism-based.
The nature of data set [9]: Volume of distribution at steady state in Sprague-Dawley rat at 2 mg/kg, iv measured upto 24 hrs by LC-MS/MS analysis. As to conditions: in vivo, read-out: Vdss. In kind it is ADME, organism-based.
Data set [10] is described as follows: AUC (0 to infinity) in Sprague-Dawley rat at 2 mg/kg, iv measured upto 24 hrs by LC-MS/MS analysis. In kind it is ADME, organism-based. More on the design: route intravenous, dose 2 mg/kg, time <=24. The note with it: in vivo.
The nature of data set [11]: Water solubility of compound at pH 7.4 after 24 hrs by LC/MS analysis. In kind it is physicochemical. As to conditions: buffer, pH 7.4, 24 h.
A short description of data set [12]: Induction of gamma-globin gene expression in human erythrocytes at 1.25 uM after 3 days by RT-PCR analysis relative to control. In kind it is functional, Erythrocyte. The note with it: time 3 day.
Data set [13] is described as follows: Cytotoxicity against human erythrocytes assessed as cell viability at 1.25 uM after 3 days alamar blue assay relative to control. It counts as cell-based, Erythrocyte. The note with it: time 3 day, read-out: Activity.
Data set [14] in a line: Induction of gamma-globin gene expression in human erythrocytes at 5 uM after 3 days by RT-PCR analysis relative to control. It counts as functional, Erythrocyte. The note with it: time 3 day.
A short description of data set [15]: Cytotoxicity against human erythrocytes assessed as cell viability at 5 uM after 3 days alamar blue assay relative to control. It counts as cell-based, Erythrocyte. As to conditions: time 3 day, read-out: Activity.
Data set [16] in a line: Induction of gamma-globin gene expression in human erythrocytes at 250 uM after 3 days by RT-PCR analysis relative to control. In kind it is functional, Erythrocyte. As to conditions: time 3 day.
A short description of data set [17]: Cytotoxicity against human erythrocytes assessed as cell viability after 3 days alamar blue assay. As to conditions: time 3 day. It counts as cell-based, Erythrocyte.
Data set [18] is described as follows: Induction of gamma-globin gene expression in human erythrocytes at 0.4 uM after 3 days by RT-PCR analysis relative to control. As to conditions: time 3 day. It counts as functional, Erythrocyte.
A short description of data set [19]: Cytotoxicity against human erythrocytes assessed as cell viability at 0.4 uM after 3 days alamar blue assay relative to control. The note with it: time 3 day, read-out: Activity. In kind it is cell-based, Erythrocyte.
The nature of data set [20]: Induction of gamma-globin gene expression in human erythrocytes at 0.625 uM after 3 days by RT-PCR analysis relative to control. It counts as functional, Erythrocyte. The note with it: time 3 day.
Data set [21] in a line: Cytotoxicity against human erythrocytes assessed as cell viability at 0.625 uM after 3 days alamar blue assay relative to control. In kind it is cell-based, Erythrocyte. As to conditions: time 3 day, read-out: Activity.
A short description of data set [22]: Induction of gamma-globin gene expression in human erythrocytes at 15 uM after 3 days by RT-PCR analysis relative to control. In kind it is functional, Erythrocyte. As to conditions: time 3 day.
The nature of data set [23]: Cytotoxicity against human erythrocytes assessed as cell viability at 15 uM after 3 days alamar blue assay relative to control. It counts as cell-based, Erythrocyte. As to conditions: time 3 day, read-out: Activity.

As for `CCN1CCN(c2nc(Nc3cccc(C(=O)N[C@@H]4C[C@H]4c4ccccc4)c3)c3ncn(CC)c3n2)CC1`, in data set [1], the “fold change (FC)” value is recorded as 1.3. For the same compound, in data set [2], the viability at 72 h, 0.83 µM was found to be 71%.
On to `CCN1CCN(c2nc(Nc3cccc(NC(=O)N4CCN(c5ccc(F)cc5)CC4)c3)c3ncn(CC)c3n2)CC1`, for which the “fold change (FC)” value in data set [3] came out at 2.2. In data set [4], the viability at 72 h, 10 µM amounted to 8%.
As a reminder, the half-life is the time in which the quantity being followed falls by half. Low readings indicate rapid decline, high ones slow decline. As usually defined, the clearance is a measure of how efficiently the substance is removed, as volume per time. The low end stands for inefficient removal, the high end for efficient removal. In general, AUC(0-inf) refers to total exposure, with the tail of the curve extrapolated. The low end stands for less exposure, the high end for more exposure. What is called solubility is the concentration that dissolves in the medium under given conditions. Lower therefore signals a poorly soluble substance. As to `CCn1cnc2c(Nc3cccc(NC(=O)C#Cc4ccc(C)cc4)c3)nc(N[C@H]3CC[C@H](O)CC3)nc21`, in data set [5], the “fold change (FC)” value is reported as 1.4. Also, the viability at 72 h, 0.1 µM in data set [6] came out at 61%. Further, the half-life in data set [7] is 10.2 h. This compound displayed a clearance in data set [8] of 60.9 mL/min/kg. Besides, the Vd in data set [9] amounted to 3.8 L/kg. The AUC(0-inf) in data set [10] was determined as 610 ng·h/mL. The same compound returned a solubility in data set [11] of less than 0.01 µg/mL.
For `Cc1ccc(C#CC(=O)Nc2cccc(Nc3nc(N[C@H]4CC[C@H](O)CC4)nc4ccccc34)c2)cc1`, in data set [12], the “fold change (FC)” value stood at 1.8. In addition, the viability at 72 h, 1.25 µM in data set [13] turned out to be 46%.
For `CCn1cnc2c(Nc3cccc(NC(=O)C#Cc4ccc(C)cc4)c3)nc(N3CCN(CCF)CC3)nc21.Cl.Cl`, the “fold change (FC)” value in data set [14] worked out at 4.6. In addition, the viability at 72 h, 5 µM in [15] worked out at 50%.
For the compound `Cc1ccc(C#CC(=O)Nc2cccc(Nc3ncnc4oc(-c5ccccc5)nc34)c2)cc1`, in [3], the “fold change (FC)” value is listed as 1.2. Further, the viability at 72 h, 10 µM in data set [4] is 103%.
One may read the CC50 as the concentration that lowers cell viability or growth by half. Take `CCCC(=O)[O-].[Na+]` [SODIUM BUTYRATE]: in data set [16], the “fold change (FC)” value came out at 1.3. Moreover, in data set [17], the CC50 at 72 h is 222 µM.
Consider `CCn1cnc2c(Nc3cccc(NC(=O)C#Cc4ccc(C)cc4)c3)nc(OCCN3CCOCC3)nc21`, for which, in data set [18], the “fold change (FC)” value stood at 2.6. In addition, the viability at 72 h, 0.4 µM in data set [19] came to 78%.
Take `CCN1CCN(c2nc(Nc3cccc(NC(=O)[C@@H]4C[C@H]4c4ccccc4)c3)c3ncn(CC)c3n2)CC1`: the “fold change (FC)” value in [12] turned out to be 1.1. In addition, in data set [13], the viability at 72 h, 1.25 µM came out at 77%.
Turning to `CCn1cnc2c(Nc3cccc(NC(=O)C#Cc4ccc(C)cc4)c3)nc(N3CCC(N(C)C)CC3)nc21.Cl.Cl`, the “fold change (FC)” value in data set [20] came out at 1.7. The viability at 72 h, 0.625 µM in data set [21] was 75%.
As to `CCn1cnc2c(Nc3cccc(NC(=O)C#Cc4ccc(C)cc4)c3)nc(N3CCC(N(C)C)C3)nc21` (configuration not stated), the “fold change (FC)” value in data set [12] was found to be 1.5. Besides, in data set [13], the viability at 72 h, 1.25 µM is 53%.
On to `CCN1CCN(c2nc(Nc3cccc(C(=O)Nc4ccc(-c5ccccc5)cc4)c3)c3ncn(CC)c3n2)CC1`, for which the “fold change (FC)” value in data set [20] stood at 0.84. Further, in data set [21], the viability at 72 h, 0.625 µM is 105%.
In the case of `CCn1cnc2c(Nc3cccc(NC(=O)C#Cc4ccc(C)cc4)c3)ncnc21`, in data set [22], the “fold change (FC)” value is given as 4.1. For the same compound, the viability at 72 h, 15 µM in data set [23] worked out at 75%.
`Cc1ccc(C#CC(=O)Nc2cccc(Nc3nc(N[C@H]4CC[C@H](O)CC4)nc4scnc34)c2)cc1`: the “fold change (FC)” value in data set [3] stood at 0.87. Also, the viability at 72 h, 10 µM in [4] turned out to be 19%.
As for `CCN1CCN(c2nc(Nc3cccc(NC(=O)/C=C/c4ccccc4)c3)c3ncn(CC)c3n2)CC1`, the “fold change (FC)” value in data set [12] stood at 2.3. The viability at 72 h, 1.25 µM in [13] came out at 128%.
In the same order, the values of `CCn1cnc2c(Nc3cccc(NC(=O)C#Cc4ccc(C)cc4)c3)nc(N3CCN(CCO)CC3)nc21` are 4.6 and 58%.

Values taken from ChEMBL document CHEMBL4732077, “Potent and orally active purine-based fetal hemoglobin inducers for treating β-thalassemia and sickle cell disease” (Eur J Med Chem, 2021).
